Measured values from US20140248291A1, “Modulation of Cellular Migration” (THE UAB RESEARCH FOUNDATION, priority 2011, published 2014).
pKi: −log10 of the molar value.

Tests used:
B2R [1] = target: T1, B2R (Homo sapiens, UniProt P30411); assay: calcium imaging (Fura-2), BK response with B2R antagonists; assay type: cell-based; conditions: BK in presence of the B2R antagonist; for average peak of Ca2+ response: p<0.001 vs BK
T1 construct: endogenous in cells; host or cells: D54-MG / D54-MG-GFP human glioma cells
T1 sequence (P30411 1-391): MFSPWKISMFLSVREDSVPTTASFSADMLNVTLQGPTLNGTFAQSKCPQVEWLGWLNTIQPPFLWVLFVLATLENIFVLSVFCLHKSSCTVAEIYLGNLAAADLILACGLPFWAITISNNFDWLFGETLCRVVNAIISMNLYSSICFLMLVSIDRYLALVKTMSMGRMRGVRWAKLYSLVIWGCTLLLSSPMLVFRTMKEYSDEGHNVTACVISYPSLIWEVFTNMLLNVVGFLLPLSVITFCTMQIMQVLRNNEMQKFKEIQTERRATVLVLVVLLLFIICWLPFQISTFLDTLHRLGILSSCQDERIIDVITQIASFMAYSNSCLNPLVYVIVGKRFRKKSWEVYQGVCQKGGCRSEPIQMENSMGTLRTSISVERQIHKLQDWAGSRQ
Method: D54-MG cells were plated on 35-mm glass bottom dishes (MatTek, Corp., Ashland, Mass.) at ˜100×10^3 per dish and cultured for 2 days. pTRIPZ transfected cells, after stable selection, were plated at a density of ˜20×10^3 per dish and treated with […] doxycycline for 4 to 5 days to allow for sufficient protein knockdown. All cells were loaded in serum-free culture medium for 45 min with the ratiometric Ca^2+ dye Fura-2-acetoxymethylester (5 μmol/L; TEFLABS, Austin, Tex.) reconstituted in 20% wiv pluronic acid in DMSO (Invitrogen, Carlsbad, Calif.). Cells were rinsed with serum-free medium and allowed to rest in 7% serum-containing medium for 45 min at 37° C. The glass-bottom dishes were placed in an environmental chamber mounted on an inverted microscope. Cells were allowed to equilibrate in the chamber for 15 min before calcium images were collected. Following equilibration, recordings were obtained with an Olympus Disk Spinning Unit (DSU) fluorescent imaging microscope where cells were alternately excited at 340 and 380 nm using an x-cite illumination light source. Emitted light was collected at >520 nm. Images were digitized online using Slidebook 4.2 software (Intelligent Imaging Innovations, Denver, Colo.), and 340:380 nm ratios were obtained every 15 seconds. Following a 5 minute baseline recording every 15 seconds, BK was applied to the cells and imaging continued every 15 seconds for 30 or 60 minutes. In a subset of experiments, BK antagonists, HOE-140 and Bradyzide were applied to the cells. These experiments were repeated at least three times and data were pooled for statistical analysis.
Glioma cells respond to environmental clues as they invade the brain. It has been previously shown that the exposure of glioma cells to certain neuroligands induces increase in intracellular calcium concentrations. In this series of experiments, we investigated Ca^2+-responses in cultured D54-MG glioma cells, after addition of acetylcholine (ACh), ATP or BK. Glioma cells were loaded with the ratiometric Ca^2+-dye FURA2-AM, and imaged over 30 min.

D54-MG-GFP cells = assay: slice invasion assay, acute rat brain slices; assay type: cell-based, human
Method: Experiments were performed on male and female Sprague-Dawley rats and were approved by the University of Alabama Institutional Animal Care and Use Committee. 17-22 days old pups were decapitated. Meninges were stripped, brain was taken out and put in ice-cold bath ACSF. Tissue was sliced using Vibrotome 3000 sectioning system. 300 μm thick slices were let recover in ACSF for 1 hour at room temperature, followed by recovery in ACSF at 37° C. in […] for 1 hour. CD31 antibody (BD Biosciences, Pharminogen, San Diego, Calif.) that labels blood vessels was added during the latter recovery period. Slices were then transferred into transwell migration cell culture inserts (BD Biosciences, San Jose, Calif.) with 8 μm pores that were pretreated with Vitronectin and blocked as described above. 50,000 D54-EGFP MG cells were then seeded on top of the slices and allowed to migrate/invade into the tissue for 2 hours at 37° C. During that period, slices were treated with 1 μM BK, 1 μM BK+5 μM HOE-140 or 5 μM HOE-140 added to the bottom of migration chamber in order to create a concentration gradient, similar to in vitro migration/invasion assay (FIG. 5C). In control experiments, drug treatment was omitted. Following double washes with PBS, slices were fixed in 4% paraformaldehyde overnight at 4° C. The following day, samples were washed three times with PBS and the slices were mounted between two coverslips for imaging on an Olympus Fluoview confocal microscope with 60× objective.
Having established a dependence of migration and BK in vitro, the role of BK signaling in brain slices was examined, where the presence of neurons, glia and endothelial cells resemble the complex environment more reminiscent of the actual invasions of glioma cells in the human brain. To this end, acute brain slices of rat cortex, that can be maintained viable for many hours of investigation, were incubated with CD31 antibody to label blood vessels and seeded with D54-MG-GFP cells. Cells were allowed to migrate and invade for 2 hours in presence or absence of BK and in presence or absence of B2R antagonist HOE-140. The experimental set-up is illustrated in FIG. 5C. Representative confocal images of glioma cells invading into the slice in the presence of BK with and without antagonist HOE-140 added are shown in FIG. 5A, a, A, b and A, c. […] Similarly, most of the cells remained on the slices when treated only with B2R antagonist, as depicted in 40 μm cross-section in FIG. 5A, f. Data were analyzed by counting the number of glioma cells that attached to blood vessels in the presence of BK (77.4±4.1%, 391 cells analyzed), BK and antagonist HOE-140 (19.3±3.4%, 461 cells analyzed) or antagonist HOE-140 (42.7±4.2%, 452 cells analyzed) and compared with control (53.5±6.3%, 403 cells analyzed) where no drugs were added. […] Another important effect observed was that the glioma cells were invading deeper into the tissue in the presence of BK when compared to controls.

BK = BK (Homo sapiens, UniProt P30411); conditions: cited from earlier work
B2R [2] = conditions: NG108-15 cells, n=3; read-out: KI, displacement of [3H]-BK binding; cited from earlier work
[3] = in vivo; cited from earlier work

Compound	cells responded / cells imaged (B2R [1])	average peak of Ca2+ response (B2R [1])	glioma cells attached to blood vessels (D54-MG-GFP cells; 1 μM BK + 5 μM HOE-140, 2 h, 461 cells analyzed)	glioma cells attached to blood vessels (D54-MG-GFP cells; 5 μM HOE-140 alone, 2 h, 452 cells analyzed)	cells migrated up to 15 μm (D54-MG-GFP cells; HOE-140 alone)	cells migrated up to 20 μm (D54-MG-GFP cells; HOE-140 alone)	cells migrated up to 25 μm (D54-MG-GFP cells; HOE-140 alone)	cells on top of the slice (D54-MG-GFP cells; HOE-140 alone)	cells migrated up to 15 μm (D54-MG-GFP cells; HOE-140 in addition to BK)	cells migrated up to 20 μm (D54-MG-GFP cells; HOE-140 in addition to BK)	cells migrated up to 25 μm (D54-MG-GFP cells; HOE-140 in addition to BK)	cells remained on the top of the slice (D54-MG-GFP cells; HOE-140 in addition to BK)	potency relative to D-Arg-[Hyp^2, Thi^5,8, D-Phe^7]BK (BK)	pKi (B2R [2])	oral availability [3]
N=C(N)NCCCC(NC(=O)[C@H](N)CCCNC(=N)N)C(=O)N1CCC[C@H]1C(=O)N1C[C@H](O)C[C@H]1C(=O)NCC(=O)N[C@@H](Cc1cccs1)C(=O)N[C@@H](CO)C(=O)N1Cc2ccccc2C[C@@H]1C(=O)N1C2CCCCC2C[C@H]1C(=O)N[C@H](CCCNC(=N)N)C(=O)O (stereo partly drawn) [HOE-140, D-Arg-[Hyp^3, Thi^5, D-Tic^7, Oic^8]bradykinin]	22/162	0.15±0.01	19.3±3.4%	42.7±4.2%	29.8%	14.4%	3.5%	51.9%	25.7%	15.4%	6.4%	47.5%	two to three orders of magnitude more potency	–	–
CN(C)CCN(C)CCNC(=O)[C@@H]1CCCN1S(=O)(=O)c1ccc(NNC(=S)NC(c2ccccc2)c2ccccc2)c([N+](=O)[O-])c1 [Bradyzide]	156/300	0.15±0.02	–	–	–	–	–	–	–	–	–	–	–	9.29	orally available
